Eight compounds from ChEMBL document CHEMBL4673364, “Synthesis and cytotoxic activity of new 7-acetoxy-12-amino-14-deoxy andrographolide analogues” (Bioorg Med Chem Lett, 2021) can be followed below.

Holding throughout (assay type): functional, cell-based
Assay [1] has as its system A549. Briefly: Cytotoxicity against human A549 cells assessed as reduction in cell viability by SRB assay. Background: In SRB staining, fixed cells bind dye roughly in proportion to their protein.
Assay [2] can be described thus: Cytotoxicity against rat ASK cells assessed as reduction in cell viability by SRB assay.
A short description of assay [3]: Cytotoxicity against human K213 cells assessed as reduction in cell viability by SRB assay.
Assay [4] can be described thus: Cytotoxicity against human K055 cells assessed as reduction in cell viability by SRB assay.
For assay [5], the system named is MCF7. Briefly: Cytotoxicity against human MCF7 cells assessed as reduction in cell viability by SRB assay.
In assay [6] the test system is KB. The experiment in a line: Cytotoxicity against human KB cells assessed as reduction in cell viability by SRB assay.
Assay [7] deals with HT-29. The experiment in a line: Cytotoxicity against human HT-29 cells assessed as reduction in cell viability by SRB assay.
Assay [8] in a line: Cytotoxicity against human P388 cells assessed as reduction in cell viability by SRB assay.

With `C=C1[C@@H](OC(C)=O)C[C@@H]2[C@](C)(CO[Si](C)(C)C(C)(C)C)[C@H](OC(C)=O)CC[C@@]2(C)[C@@H]1C[C@@H](Nc1ccc(O)cc1)C1=CCOC1=O`, the IC50 (commonly the concentration at which inhibition is half-maximal) in assay [1] turned out to be 5.09 µM; in assay [2] it was 5 µM; in assay [3], 9.25 µM; in assay [4], 5.95 µM; in assay [5], 5.22 µM; in assay [6] it was 8.35 µM. Further, the IC50 in assay [7] is 6.14 µM; in assay [8], 5.03 µM.
As to `C=C1[C@@H](OC(C)=O)C[C@@H]2[C@](C)(CO[Si](C)(C)C(C)(C)C)[C@H](OC(C)=O)CC[C@@]2(C)[C@@H]1C[C@@H](Nc1cccc(OC)c1)C1=CCOC1=O`, the IC50 in assay [1] came out at 17.2 µM; in assay [2], 39.7 µM; in assay [3], 40.1 µM; in assay [4], 44 µM; in assay [5], 28.1 µM; in assay [6] it was 45.2 µM. The half-inhibitory concentration (IC50) was above 50 µM in assay [7] and 27.8 µM in assay [8].
Take `C=C1CC[C@@H]2[C@](C)(CO[Si](C)(C)C(C)(C)C)[C@H](OC(C)=O)CC[C@@]2(C)[C@@H]1C/C=C1/C(=O)OC[C@H]1OC(C)=O`: the IC50 in assay [1] was determined as 3.99 µM; in assay [2], 2.41 µM; in assay [3], 38.7 µM; in assay [4], 44.3 µM; in assay [5] it was 4.84 µM; in assay [6], 5.05 µM. Moreover, the IC50 came to 4.69 µM in assay [7] and 0.3 µM in assay [8].
Consider `C=C1[C@@H](OC(C)=O)C[C@@H]2[C@](C)(CO[Si](C)(C)C(C)(C)C)[C@H](OC(C)=O)CC[C@@]2(C)[C@@H]1C[C@H](C1=CCOC1=O)N1CCOCC1`, for which the IC50 in assay [1] amounted to 24.8 µM; in assay [2] it was 26.3 µM; in assay [4], 28.3 µM; in assay [5], 31.6 µM; in assay [6] it was 35.7 µM; in assay [7], 37.6 µM. Moreover, the IC50 in assay [8] worked out at 20.4 µM.
Consider `C=C1CC[C@@H]2[C@](C)(CO)[C@H](O)CC[C@@]2(C)[C@@H]1C/C=C1/C(=O)OC[C@H]1O` [ANDROGRAPHOLIDE], for which the half-inhibitory concentration (IC50) in assay [1] worked out at 12.2 µM; in assay [2] it was 45.4 µM; in assay [3], 33.9 µM; in assay [4], 30.2 µM; in assay [5], 29.1 µM; in assay [6], 41.5 µM. Besides, the IC50 in assay [7] worked out at 10.8 µM; in assay [8] it was 6.91 µM.
As to `C=C1[C@@H](OC(C)=O)C[C@@H]2[C@](C)(COC=O)[C@H](OC(C)=O)CC[C@@]2(C)[C@@H]1C[C@@H](Nc1cccc2ccccc12)C1=CCOC1=O`, the IC50 in assay [1] is 35.6 µM; in assay [2], above 50 µM; in assay [3] it was 31.3 µM; in assay [4], 28.8 µM; in assay [5], 9.75 µM; in assay [6], 32.3 µM. Also, the IC50 came out at 8.67 µM in assay [7] and 6.49 µM in assay [8].
For `C=C1[C@@H](OC(C)=O)C[C@@H]2[C@](C)(COC=O)[C@H](OC(C)=O)CC[C@@]2(C)[C@@H]1C[C@H](C1=CCOC1=O)N1CCOCC1`, the IC50 in assay [1] is above 50 µM; in assay [2], 34.4 µM; in assay [3] it was 31.7 µM; in assay [4], 33.7 µM; in assay [5] it was 43.6 µM; in assay [6], above 50 µM. In addition, the half-inhibitory concentration (IC50) in assay [7] is 35.1 µM; in assay [8], 29.2 µM.
In the case of `C=C1[C@@H](OC(C)=O)C[C@@H]2[C@](C)(CO[Si](C)(C)C(C)(C)C)[C@H](OC(C)=O)CC[C@@]2(C)[C@@H]1C[C@@H](Nc1ccc(OC)cc1)C1=CCOC1=O`, the IC50 in assay [1] is 4.81 µM; in assay [2], 4.56 µM; in assay [3], 5.2 µM; in assay [4] it was 5.6 µM; in assay [5], 4.28 µM; in assay [6] it was 5.63 µM. In addition, the IC50 in assay [7] is 5.37 µM; in assay [8] it was 4.03 µM.
